Assay results from PubChem BioAssay (NCI).
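1) Cells in 96-well plates. 2) Compound, 48 h, 5 concentrations. 3) Linear interpolation between surrounding doses. 4) Unreached endpoint = highest concentration. GI50 = concentration required for 50% inhibition of growth. TGI denotes the concentration required for complete inhibition of growth.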

Key:
Test in all cases: NCI tumour cell line growth inhibition, 48 h; in the data active means GI50 below about 0.43 µM; inactive means the rest
HOP-92 NSCLC = tested on: HOP-92 NSCLC
MALME-3M melanoma = tested on: MALME-3M melanoma
SF-539 CNS = tested on: SF-539 CNS
TK-10 renal = tested on: TK-10 renal
A498 renal = tested on: A498 renal
NCI-H460 lung = tested on: NCI-H460 lung
HOP-62 NSCLC = tested on: HOP-62 NSCLC
ACHN renal = tested on: ACHN renal
SW-620 colon = tested on: SW-620 colon
SK-MEL-5 melanoma = tested on: SK-MEL-5 melanoma
CAKI-1 renal = tested on: CAKI-1 renal
SK-MEL-28 melanoma = tested on: SK-MEL-28 melanoma
MOLT-4 leukemia = tested on: MOLT-4 leukemia
MCF7 breast = tested on: MCF7 breast
COLO 205 colon = tested on: COLO 205 colon
LOX IMVI melanoma = tested on: LOX IMVI melanoma
PC-3 prostate = tested on: PC-3 prostate
U251 CNS = tested on: U251 CNS
DU-145 prostate = tested on: DU-145 prostate
A549 NSCLC = tested on: A549 NSCLC
SF-295 CNS = tested on: SF-295 CNS
SN12C renal = tested on: SN12C renal
SK-OV-3 ovarian = tested on: SK-OV-3 ovarian
HL-60(TB) leukemia = tested on: HL-60(TB) leukemia
NCI-H23 lung = tested on: NCI-H23 lung
CCRF-CEM leukemia = tested on: CCRF-CEM leukemia
SNB-75 CNS = tested on: SNB-75 CNS
HCT-15 colon = tested on: HCT-15 colon
UACC-257 melanoma = tested on: UACC-257 melanoma
IGROV1 ovarian = tested on: IGROV1 ovarian
HCT-116 colon = tested on: HCT-116 colon
SK-MEL-2 melanoma = tested on: SK-MEL-2 melanoma
EKVX NSCLC = tested on: EKVX NSCLC
HCC-2998 colon = tested on: HCC-2998 colon
SR leukemia = tested on: SR leukemia
M14 melanoma = tested on: M14 melanoma
K-562 leukemia = tested on: K-562 leukemia
RPMI-8226 leukemia = tested on: RPMI-8226 leukemia
T-47D breast = tested on: T-47D breast
UO-31 renal = tested on: UO-31 renal
HS 578T breast = tested on: HS 578T breast
RXF 393 renal = tested on: RXF 393 renal
SF-268 CNS = tested on: SF-268 CNS
OVCAR-8 ovarian = tested on: OVCAR-8 ovarian
MDA-MB-435 = tested on: MDA-MB-435
KM12 colon = tested on: KM12 colon
UACC-62 melanoma = tested on: UACC-62 melanoma
BT-549 breast = tested on: BT-549 breast
NCI/ADR-RES ovarian = tested on: NCI/ADR-RES ovarian
MDA-MB-231 breast = tested on: MDA-MB-231 breast
SNB-19 CNS = tested on: SNB-19 CNS
OVCAR-3 ovarian = tested on: OVCAR-3 ovarian
NCI-H522 lung = tested on: NCI-H522 lung
OVCAR-4 ovarian = tested on: OVCAR-4 ovarian
HT29 colon = tested on: HT29 colon
NCI-H226 lung = tested on: NCI-H226 lung
786-0 renal = tested on: 786-0 renal
OVCAR-5 ovarian = tested on: OVCAR-5 ovarian

CC(C)(C(=O)NCC(F)(F)C(F)(F)F)C(=O)N[C@@H]1C(=O)Nc2ccccc2-c2ccccc21
> 100 µM: TGI (HOP-92 NSCLC) | TGI (MALME-3M melanoma) | TGI (SF-539 CNS) | TGI (TK-10 renal) | TGI (A498 renal) | TGI (NCI-H460 lung) | TGI (HOP-62 NSCLC) | TGI (ACHN renal) | TGI (SW-620 colon) | TGI (CAKI-1 renal) | TGI (SK-MEL-28 melanoma) | TGI (MOLT-4 leukemia) | TGI (MCF7 breast) | TGI (COLO 205 colon) | TGI (LOX IMVI melanoma) | TGI (PC-3 prostate) | TGI (U251 CNS) | TGI (DU-145 prostate) | TGI (A549 NSCLC) | TGI (SF-295 CNS) | TGI (SN12C renal) | TGI (SK-OV-3 ovarian) | TGI (HL-60(TB) leukemia) | TGI (NCI-H23 lung) | TGI (CCRF-CEM leukemia) | TGI (SNB-75 CNS) | TGI (HCT-15 colon) | TGI (UACC-257 melanoma) | TGI (IGROV1 ovarian) | TGI (HCT-116 colon) | TGI (SK-MEL-2 melanoma) | TGI (EKVX NSCLC) | TGI (HCC-2998 colon) | TGI (M14 melanoma) | TGI (K-562 leukemia) | TGI (RPMI-8226 leukemia) | TGI (UO-31 renal) | TGI (HS 578T breast) | TGI (SF-268 CNS) | TGI (OVCAR-8 ovarian) | TGI (MDA-MB-435) | TGI (KM12 colon) | TGI (UACC-62 melanoma) | TGI (BT-549 breast) | TGI (NCI/ADR-RES ovarian) | TGI (MDA-MB-231 breast) | TGI (SNB-19 CNS) | TGI (OVCAR-3 ovarian) | TGI (NCI-H522 lung) | TGI (OVCAR-4 ovarian) | TGI (HT29 colon) | TGI (NCI-H226 lung) | TGI (786-0 renal) | TGI (OVCAR-5 ovarian)
37.5 µM: TGI (SK-MEL-5 melanoma)
inactive: GI50 (HOP-92 NSCLC) 39.2 µM | GI50 (MALME-3M melanoma) > 61.9 µM | GI50 (SF-539 CNS) > 84.8 µM | GI50 (TK-10 renal) > 100 µM | GI50 (A498 renal) 50.3 µM | GI50 (NCI-H460 lung) 52.4 µM | GI50 (HOP-62 NSCLC) > 93.4 µM | GI50 (ACHN renal) 50.4 µM | GI50 (SW-620 colon) > 70.2 µM | GI50 (SK-MEL-5 melanoma) 16 µM | GI50 (CAKI-1 renal) 45.4 µM | GI50 (SK-MEL-28 melanoma) 42 µM | GI50 (MOLT-4 leukemia) 40.3 µM | GI50 (MCF7 breast) 27.3 µM | GI50 (COLO 205 colon) 34 µM | GI50 (LOX IMVI melanoma) > 59.2 µM | GI50 (PC-3 prostate) 50.8 µM | GI50 (U251 CNS) > 78.5 µM | GI50 (DU-145 prostate) > 87.2 µM | GI50 (A549 NSCLC) 51.9 µM | GI50 (SF-295 CNS) 43.7 µM | GI50 (SN12C renal) > 85 µM | GI50 (SK-OV-3 ovarian) 99 µM | GI50 (HL-60(TB) leukemia) 37.5 µM | GI50 (NCI-H23 lung) > 67 µM | GI50 (CCRF-CEM leukemia) 45.3 µM | GI50 (SNB-75 CNS) 21.6 µM | GI50 (HCT-15 colon) 51.3 µM | GI50 (UACC-257 melanoma) 47.3 µM | GI50 (IGROV1 ovarian) > 71.6 µM | GI50 (HCT-116 colon) 46.1 µM | GI50 (SK-MEL-2 melanoma) > 57.2 µM | GI50 (EKVX NSCLC) 52.7 µM | GI50 (HCC-2998 colon) 40.6 µM | GI50 (SR leukemia) 35.5 µM | GI50 (M14 melanoma) 38.8 µM | GI50 (K-562 leukemia) > 67.3 µM | GI50 (RPMI-8226 leukemia) 54.5 µM | GI50 (T-47D breast) 23.7 µM | GI50 (UO-31 renal) 32.3 µM | GI50 (HS 578T breast) > 56 µM | GI50 (RXF 393 renal) 20 µM | GI50 (SF-268 CNS) 67.5 µM | GI50 (OVCAR-8 ovarian) 55.6 µM | GI50 (MDA-MB-435) > 63.7 µM | GI50 (KM12 colon) 73.3 µM | GI50 (UACC-62 melanoma) 29.2 µM | GI50 (BT-549 breast) 36.3 µM | GI50 (NCI/ADR-RES ovarian) 42.4 µM | GI50 (MDA-MB-231 breast) 44 µM | GI50 (SNB-19 CNS) 62.3 µM | GI50 (OVCAR-3 ovarian) 68.8 µM | GI50 (NCI-H522 lung) 65.1 µM | GI50 (OVCAR-4 ovarian) 34.1 µM | GI50 (HT29 colon) 39.7 µM | GI50 (NCI-H226 lung) 30.1 µM | GI50 (786-0 renal) > 64.3 µM | GI50 (OVCAR-5 ovarian) 97 µM
99 µM: TGI (SR leukemia) | TGI (T-47D breast)
> 78.7 µM: TGI (RXF 393 renal)
